The source of these data is PubChem BioAssay AID250 (DTP/NCI, 2004).

Each structure is given as a SMILES string. Several values for one entry are separate records, joined by “and”; a condition that tells them apart may be missing. Equal entries are not always repeated. Toxic doses and inconclusive results are not listed.

For the assay, the system named is BDF1 mice, L1210 leukemia sc, survival T/C. The experiment in a line: NCI In Vivo Anticancer Drug Screen. Data for tumor model L1210 Leukemia (subcutaneous) in B6D2F1 (BDF1) mice. Particulars: higher = longer survival. A digest of the protocol: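 Tumors were transplanted into mice, the animals were treated with compound, survival or tumor size was then measured, and treated values were divided by vehicle-control values.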

Setting [1] is: endpoint: median survival time, dose: 65.0 mg/kg/injection, schedule: Q01DX Z (sc), vehicle: methylcellulose (MC).
Where [2] appears, read: endpoint: median survival time, dose: 108.0 mg/kg/injection, schedule: Q01DX Z (sc), vehicle: methylcellulose (MC).
Setting [3] is: endpoint: median survival time, dose: 180.0 mg/kg/injection, schedule: Q01DX Z (sc), vehicle: methylcellulose (MC).
Where [4] appears, read: endpoint: median survival time, dose: 300.0 mg/kg/injection, schedule: Q01DX Z (sc), vehicle: methylcellulose (MC).

`C=CC(CO)N1CC1` (configuration not stated): the T/C (endpoint: median survival time, dose: 1.08 mg/kg/injection, schedule: Q01DX Z (sc), vehicle: saline) is 100 % of control; the T/C (endpoint: median survival time, dose: 1.8 mg/kg/injection, schedule: Q01DX Z (sc), vehicle: saline) is 100 % of control; the T/C (endpoint: median survival time, dose: 1.8 mg/kg/injection, schedule: Q02DX Z (sc), vehicle: saline) is 100 % of control; the T/C (endpoint: median survival time, dose: 3.0 mg/kg/injection, schedule: Q01DX Z (sc), vehicle: saline) is 100 % of control; the T/C (endpoint: median survival time, dose: 3.0 mg/kg/injection, schedule: Q02DX Z (sc), vehicle: saline) was 105 % of control; the T/C (endpoint: median survival time, dose: 5.0 mg/kg/injection, schedule: Q01DX Z (sc), vehicle: saline) was 90 % of control and 100 % of control. For the same compound, the T/C was 100 % of control (endpoint: median survival time, dose: 5.0 mg/kg/injection, schedule: Q02DX Z (sc), vehicle: saline); 100 % of control (endpoint: median survival time, dose: 5.0 mg/kg/injection, schedule: Q## X Z (sc), vehicle: saline); 100 % of control (endpoint: median survival time, dose: 7.8 mg/kg/injection, schedule: Q01DX Z (sc), vehicle: saline); 100 % of control (endpoint: median survival time, dose: 8.4 mg/kg/injection, schedule: Q01DX001 (sc), vehicle: saline); 100 % of control (endpoint: median survival time, dose: 8.4 mg/kg/injection, schedule: Q02DX Z (sc), vehicle: saline); 100 % of control (endpoint: median survival time, dose: 8.4 mg/kg/injection, schedule: Q## X Z (sc), vehicle: saline). The T/C (endpoint: median survival time, dose: 14.0 mg/kg/injection, schedule: Q01DX001 (sc), vehicle: saline) is 100 % of control; the T/C (endpoint: median survival time, dose: 14.0 mg/kg/injection, schedule: Q01DX Z (sc), vehicle: saline) is 100 % of control; the T/C (endpoint: median survival time, dose: 14.0 mg/kg/injection, schedule: Q02DX Z (sc), vehicle: saline) was 100 % of control; the T/C (endpoint: median survival time, dose: 14.0 mg/kg/injection, schedule: Q## X Z (sc), vehicle: saline) is 100 % of control; the T/C (endpoint: median survival time, dose: 23.0 mg/kg/injection, schedule: Q01DX001 (sc), vehicle: saline) is 100 % of control; the T/C (endpoint: median survival time, dose: 23.0 mg/kg/injection, schedule: Q01DX Z (sc), vehicle: saline) is 90 % of control and 110 % of control. For the same compound, the T/C is, setting by setting: (endpoint: median survival time, dose: 23.0 mg/kg/injection, schedule: Q02DX Z (sc), vehicle: saline) 100 % of control; (endpoint: median survival time, dose: 23.0 mg/kg/injection, schedule: Q## X Z (sc), vehicle: saline) 100 % of control; (endpoint: median survival time, dose: 36.0 mg/kg/injection, schedule: Q01DX Z (sc), vehicle: saline) 105 % of control; (endpoint: median survival time, dose: 37.0 mg/kg/injection, schedule: Q02DX Z (sc), vehicle: saline) 100 % of control; (endpoint: median survival time, dose: 39.0 mg/kg/injection, schedule: Q01DX001 (sc), vehicle: saline) 110 % of control; (endpoint: median survival time, dose: 39.0 mg/kg/injection, schedule: Q01DX Z (sc), vehicle: saline) 95 % of control and 100 % of control. Moreover, the T/C is 100 % of control (endpoint: median survival time, dose: 39.0 mg/kg/injection, schedule: Q## X Z (sc), vehicle: saline); 120 % of control (endpoint: median survival time, dose: 65.0 mg/kg/injection, schedule: Q01DX001 (sc), vehicle: saline); 100 % of control (endpoint: median survival time, dose: 65.0 mg/kg/injection, schedule: Q02DX Z (sc), vehicle: saline); 120 % of control (endpoint: median survival time, dose: 65.0 mg/kg/injection, schedule: Q## X Z (sc), vehicle: saline); 115 % of control (endpoint: median survival time, dose: 108.0 mg/kg/injection, schedule: Q01DX001 (sc), vehicle: saline); 115 % of control (endpoint: median survival time, dose: 108.0 mg/kg/injection, schedule: Q## X Z (sc), vehicle: saline).

On to `O=C(NC(CO)C(=O)O)C(Cl)Cl` (configuration not stated), for which the T/C runs as follows: (endpoint: median survival time, dose: 138.8 mg/kg/injection, schedule: Q01DX Z (sc), vehicle: water) 100 % of control; (endpoint: median survival time, dose: 300.0 mg/kg/injection, schedule: Q01DX Z (sc), vehicle: water) 100 % of control; (endpoint: median survival time, dose: 500.0 mg/kg/injection, schedule: Q01DX Z (sc), vehicle: water) 100 % of control.

With `COc1ccc2c(Nc3ccc(NS(C)(=O)=O)cc3)c3ccccc3nc2c1`, the T/C (endpoint: mean survival time, dose: 6.25 mg/kg/injection, schedule: Q01DX009 (sc), vehicle: saline) is 109 % of control.

Regarding `O=C(Nc1ccc(C2=NCCCN2)cc1)c1ccc(C(=O)Nc2ccc(C3=NCCCN3)cc2)cc1`, the T/C (endpoint: median survival time, dose: 3.0 mg/kg/injection, schedule: Q01DX Z (sc), vehicle: methylcellulose (MC)) is 190 % of control; the T/C (endpoint: median survival time, dose: 5.0 mg/kg/injection, schedule: Q01DX Z (sc), vehicle: methylcellulose (MC)) is 195 % of control; the T/C (endpoint: median survival time, dose: 8.4 mg/kg/injection, schedule: Q01DX Z (sc), vehicle: methylcellulose (MC)) is 165 % of control; the T/C (endpoint: median survival time, dose: 14.0 mg/kg/injection, schedule: Q01DX Z (sc), vehicle: methylcellulose (MC)) was 155 % of control; the T/C (endpoint: median survival time, dose: 23.0 mg/kg/injection, schedule: Q01DX Z (sc), vehicle: methylcellulose (MC)) is 150 % of control.

`C[n+]1c2cc(N)ccc2cc2ccc(N)cc21`: the T/C (endpoint: median survival time, dose: 23.0 mg/kg/injection, schedule: Q01DX Z (sc), vehicle: water) was 90 % of control and 100 % of control.

Turning to `CN=C(NC)c1ccc(NC(=O)c2ccc(C(=O)Nc3ccc(C(=NC)NC)cc3)c(Cl)c2)cc1`, the T/C by setting is: (endpoint: median survival time, dose: 39.0 mg/kg/injection, schedule: Q01DX Z (sc), vehicle: methylcellulose (MC)) 100 % of control; under setting [1], 100 % of control; under setting [2], 100 % of control; under setting [3], 105 % of control; under setting [4], 100 % of control.

As to `Cn1c(N)nc2nc[nH]c2c1=S`, the T/C reads like this: under setting [1], 100 % of control; under setting [2], 100 % of control; under setting [3], 100 % of control and 105 % of control; under setting [4], 100 % of control; (endpoint: median survival time, dose: 500.0 mg/kg/injection, schedule: Q01DX Z (sc), vehicle: methylcellulose (MC)) 100 % of control and 105 % of control; (endpoint: median survival time, dose: 833.0 mg/kg/injection, schedule: Q01DX Z (sc), vehicle: methylcellulose (MC)) 110 % of control.

For the compound `S=c1nc[nH]c2c1ncn2C1CCCO1` (configuration not stated), the T/C runs as follows: under setting [2], 120 % of control; under setting [3], 120 % of control; under setting [4], 100 % of control.

As for `CC[C@@]1(O)C(=O)OCc2c1cc1n(c2=O)Cc2cc3ccccc3nc2-1`, the T/C (endpoint: median survival time, dose: 0.65 mg/kg/injection, schedule: Q01DX Z (sc), vehicle: carboxymethylcellulose (CMC)) is 100 % of control; the T/C (endpoint: median survival time, dose: 1.08 mg/kg/injection, schedule: Q01DX Z (sc), vehicle: carboxymethylcellulose (CMC)) was 100 % of control; the T/C (endpoint: median survival time, dose: 1.8 mg/kg/injection, schedule: Q01DX Z (sc), vehicle: carboxymethylcellulose (CMC)) is 122 % of control; the T/C (endpoint: median survival time, dose: 3.0 mg/kg/injection, schedule: Q01DX Z (sc), vehicle: carboxymethylcellulose (CMC)) is 118 % of control.

On to `O=C1OC(C(O)CO)C(O)=C1O` (configuration not stated), for which the T/C was 91 % of control (endpoint: mean survival time, dose: 0.2 mg/kg/injection, schedule: Q08HX010 (ip), vehicle: other); 95 % of control (endpoint: mean survival time, dose: 0.25 mg/kg/injection, schedule: Q08HX010 (ip), vehicle: other); 93 % of control (endpoint: mean survival time, dose: 0.3 mg/kg/injection, schedule: Q08HX010 (ip), vehicle: other); 84 % of control (endpoint: mean survival time, dose: 0.5 mg/kg/injection, schedule: Q08HX010 (ip), vehicle: other).

In the case of `CO[C@H](C(=O)[C@@H](O)[C@@H](C)O)[C@@H]1Cc2cc3cc(OC4CC(OC5CC(O)C(O)C(C)O5)C(O)C(C)O4)c(C)c(O)c3c(O)c2C(=O)[C@H]1OC1CC(OC2CC(OC3CC(C)(O)C(O)C(C)O3)C(O)C(C)O2)C(O)C(C)O1` (some centres not stated), the T/C (endpoint: median survival time, dose: 0.12 mg/kg/injection, schedule: Q01DX009 (ip), vehicle: water) was 105 % of control; the T/C (endpoint: median survival time, dose: 0.12 mg/kg/injection, schedule: Q01DX009 (sc), vehicle: water) was 103 % of control; the T/C (endpoint: median survival time, dose: 0.25 mg/kg/injection, schedule: Q01DX009 (ip), vehicle: water) was 94 % of control; the T/C (endpoint: median survival time, dose: 0.25 mg/kg/injection, schedule: Q01DX009 (sc), vehicle: water) is 100 % of control and 103 % of control; the T/C (endpoint: median survival time, dose: 0.5 mg/kg/injection, schedule: Q01DX009 (sc), vehicle: water) is 95 % of control and 110 % of control; the T/C (endpoint: median survival time, dose: 1.0 mg/kg/injection, schedule: Q01DX009 (ip), vehicle: water) was 93 % of control. The T/C (endpoint: median survival time, dose: 1.0 mg/kg/injection, schedule: Q01DX009 (sc), vehicle: water) is 101 % of control and the T/C (endpoint: median survival time, dose: 2.0 mg/kg/injection, schedule: Q01DX009 (sc), vehicle: water) is 96 % of control.

Consider `CCC(=O)NC1=C(N2CC2)C(=O)C(NC(=O)CC)=C(N2CC2)C1=O`, for which the T/C reads like this: (endpoint: median survival time, dose: 1.08 mg/kg/injection, schedule: Q01DX Z (sc), vehicle: methylcellulose (MC)) 110 % of control; (endpoint: median survival time, dose: 1.8 mg/kg/injection, schedule: Q01DX Z (sc), vehicle: methylcellulose (MC)) 110 % of control.
